Measurements taken from ChEMBL document CHEMBL1143806, “Synthesis and biological evaluation of the suberoylanilide hydroxamic acid (SAHA) beta-glucuronide and beta-galactoside for application in selective prodrug chemotherapy” (Bioorg Med Chem Lett, 2007).
The source made the active and inactive calls. The rule behind the calls is not given here.

Legend:
NCI-H661 = assay: Antiproliferative activity against human H661 cells at 1 to 25 uM after 48 hrs; format: functional, cell-based
[1] = Stability in presence of 100 U/mL Escherichia coli beta-glucuronidase assessed as SAHA production after 30 mins; format: ADME; conditions: 0.5 h
[2] = Stability in presence of 100 U/mL Escherichia coli beta-glucuronidase assessed as SAHA production after 7 mins; format: ADME
[3] = Stability in presence of 200 to 1000 U/mL bovine liver beta-glucuronisase assessed as SAHA production at 100 ug/mL; format: ADME; conditions: cattle

Stability [1] | Stability [2] | Stability [3] | Structure (SMILES) | Activity (NCI-H661)
 |  |  | O=C(CCCCCCC(=O)Nc1ccccc1)NO[C@@H]1O[C@H](CO)[C@H](O)[C@H](O)[C@H]1O | inactive
Stable | Stable | Stable | O=C(CCCCCCC(=O)Nc1ccccc1)NO[C@@H]1O[C@H](C(=O)O)[C@@H](O)[C@H](O)[C@H]1O | inactive
